Source: PubChem BioAssay (NCI)
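96-well plates; 48 h exposure; 5 concentrations. Endpoints by linear interpolation between flanking doses. Not reached: highest tested concentration assigned. GI50 = concentration required for 50% inhibition of growth. At the TGI there is no net growth.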

Experiments:
Experiment in all cases: DTP human tumour cell line panel, 48 h
LOX IMVI melanoma = tested on: LOX IMVI melanoma
M14 melanoma = tested on: M14 melanoma
K-562 leukemia = tested on: K-562 leukemia
NCI-H460 lung = tested on: NCI-H460 lung
UACC-257 melanoma = tested on: UACC-257 melanoma
HL-60(TB) leukemia = tested on: HL-60(TB) leukemia
PC-3 prostate = tested on: PC-3 prostate
MOLT-4 leukemia = tested on: MOLT-4 leukemia
SNB-75 CNS = tested on: SNB-75 CNS
MDA-N = tested on: MDA-N

SMILES | TGI (LOX IMVI melanoma) [µM] | TGI (M14 melanoma) [µM] | TGI (K-562 leukemia) [µM] | TGI (NCI-H460 lung) [µM] | TGI (UACC-257 melanoma) [µM] | TGI (HL-60(TB) leukemia) [µM] | TGI (PC-3 prostate) [µM] | TGI (MOLT-4 leukemia) [µM] | TGI (SNB-75 CNS) [µM] | TGI (MDA-N) [µM] | GI50 (M14 melanoma) [µM] | GI50 (MOLT-4 leukemia) [µM] | GI50 (LOX IMVI melanoma) [nM] | GI50 (K-562 leukemia) [µM] | GI50 (NCI-H460 lung) [µM] | GI50 (UACC-257 melanoma) [µM] | GI50 (HL-60(TB) leukemia) [nM] | GI50 (PC-3 prostate) [nM] | GI50 (SNB-75 CNS) [nM]
Cn1ncc2c(Nc3cccc(Cl)c3)nc(Nc3cccc(Cl)c3)nc21 | > 85.7 | > 58.4 | 19.2 | > 30.9 | 25.9 | 44.9 | 36 | 47.4 | 31.1 |  |  |  |  |  |  |  |  |  | 
CCOC(=O)C(Cc1cn(C(C)=O)c2ccccc12)P(=O)(OCC)OCC (stereo not given) | > 100 | > 100 | > 100 | > 100 | > 100 |  | > 100 | > 100 | > 100 | > 100 |  |  |  |  |  |  |  |  | 
CC(C)C(=O)CC(c1ccc(Cl)cc1)N1N=C(C(C)C)CC1c1ccc(Cl)cc1 (stereo not given) | > 100 | > 100 | > 100 | > 100 | 49.5 | 76.8 |  | 83.4 | > 100 |  | 54.5 | 22.4 |  |  |  |  |  |  | 
N#CCCN(CCC#N)c1ccc(/C=C(\NC(=O)c2cc([N+](=O)[O-])ccc2Cl)C(=O)Nc2ccccc2)cc1 | > 100 |  | > 100 |  |  |  |  | > 100 |  |  |  |  |  |  |  |  |  |  | 
COc1ccc(C(O)(c2ccccc2)c2nccc3ccccc23)cc1 (stereo not given) | > 100 | 8.34 | > 100 | 38.9 | > 100 | > 100 | > 100 | 11.9 |  | > 100 |  |  |  |  |  |  |  |  | 
Cc1[nH]c(=O)[nH]c(=O)c1/C=C/C(=O)NC(CO)CS(=O)Cc1ccccc1 (stereo not given) | > 300 |  | > 300 | > 300 | > 300 | > 300 |  | > 300 | > 300 |  |  |  |  |  |  |  |  |  | 
O=C(O)CCc1nc2ccccc2[nH]1 | > 100 | > 100 | > 100 | > 100 | > 100 | > 100 | > 100 | > 100 | > 100 | > 100 |  |  |  |  |  |  |  |  | 
C/C(=N\NC(=S)N(C)C)c1nc2ncccc2[nH]1 | > 100 |  | > 100 | > 100 | 64.5 | 1.32 | > 100 | 9.86 | > 100 | > 100 |  |  |  |  |  |  |  |  | 
OCCCNc1ncnc2[nH]ncc12 | > 100 | > 100 | > 100 | > 100 | > 100 | > 100 | > 100 | > 100 | > 100 | > 100 |  |  |  |  |  |  |  |  | 
O=C(Nc1ccc(-n2cc(-c3ccncc3)c(-c3ccc(O)c(Cl)c3)n2)cc1)Nc1ccc(Cl)c(C(F)(F)F)c1 | 18 | 6.33 | 49.4 | 11.4 | 30.8 | 6.27 | 8.74 | 16.4 | 14.3 |  | 2.48 | 3.18 | 2140 | 3.89 | 3.33 | 7.42 | 2540 | 2490 | 2590
Cn1ccc(C(=O)NCCN(CCNC(=O)c2ccn(C)c(=O)c2O)CCNC(=O)c2ccn(C)c(=O)c2O)c(O)c1=O |  | > 100 | > 100 | > 100 | > 100 | > 100 | > 100 |  | > 100 | > 100 |  |  |  |  |  |  |  |  | 
C/C(=N\NC(=S)NCCCCNC(=S)N/N=C(\C)c1ccccn1)c1ccccc1 | 14.3 |  | > 100 | 4.71 | 9.64 |  | > 100 | > 30.5 | 9.92 | > 100 |  |  |  |  |  |  |  |  | 
Cc1c(Cl)nc(Cl)nc1Cl | 1.34 | 2.11 |  | 20.1 | 5.67 |  | 5.35 | 1.38 | 11.7 | 6.85 |  |  |  |  |  |  |  |  | 
c1ccc(C(NC2=NCCO2)c2ccccc2)cc1 | > 10 | > 10 | > 10 | > 10 |  | > 10 | > 10 | > 10 | > 10 | > 10 |  |  |  |  |  |  |  |  | 
CCCn1cc2c(SC)nc(SC)nc2n1 | > 100 | > 100 | > 100 | > 100 | > 100 | > 100 |  | > 100 | > 100 |  |  |  |  |  |  |  |  |  | 
